# Test results taken from patent US20260356856A1, “KRAS G12S AND G12C INHIBITORS” (MIRATI THERAPEUTICS, INC., priority 2023, published 2026).
# Key:
# KRas WT = target: T1, KRas WT (Homo sapiens, UniProt P01116); assay: KRas binding assay, TR-FRET displacement of Cy5 labelled tracer; conditions: 60-minute incubation at room temperature, 1% DMSO, pH 7.5
# T1 construct: Biotinylated KRas (corresponding to amino acids 1-169, produced at Accelegan Inc.); biotin (biotinylated); purchased Accelegan Inc
# In short: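 Final conditions: 1% DMSO, pH 7.5 HEPES buffer, 60 min, room temperature. Protein: biotin-KRas 1-169 with terbium streptavidin. Output: IC50, four-parameter fit of POC.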
# KRas G12C = target: T2, KRas G12C (Homo sapiens, UniProt P01116, G12C); assay: as above; conditions: 60-minute incubation at room temperature, 1% DMSO, pH 7.5
# T2 construct: Biotinylated KRas (corresponding to amino acids 1-169, produced at Accelegan Inc.); biotin (biotinylated); purchased Accelegan Inc
# In short: (§1)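 Compound competes with tracer for biotin-labelled KRas (amino acids 1-169) bound to terbium-streptavidin. Incubation runs 60 minutes at room temperature, final DMSO 1%. IC50 values derive from a 4-parameter fit.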
# KRas G12S = target: T3, KRas G12S (Homo sapiens, UniProt P01116, G12S); assay: as above; conditions: 60-minute incubation at room temperature, 1% DMSO, pH 7.5
# T3 construct: Biotinylated KRas (corresponding to amino acids 1-169, produced at Accelegan Inc.); biotin (biotinylated); purchased Accelegan Inc
# In short: as §1
# [1] = target: T4, KRas-mediated phosphorylation of ERK in A549 cells (Homo sapiens, UniProt P01116, G12S); assay: Inhibition of KRas-mediated phosphorylation of ERK (HTRF), A549 cells; format: cell-based; conditions: HTRF pERK, 3 h incubation
# T4 construct: pERK HTRF read-out
# [2] = target: T5, KRas-mediated phosphorylation of ERK in MKN1 cells (Homo sapiens, UniProt P01116); assay: Inhibition of KRas-mediated phosphorylation of ERK (HTRF), MKN1 cells; format: cell-based; conditions: MKN1 cells (KRas WT); HTRF pERK; 3 h incubation
# T5 construct: pERK HTRF read-out
# Procedure: Inhibition of KRas Phosphorylation of ERK (HTRF) by Exemplary Compounds of Formula (Ia) or (Ib)
# Cisbio HTRF Advanced pERK Assay Catalog #64AERPEH • Cells: MKN1, PSN1 • Procedure: • 1. Day 1: Seed 6,000 cells/well −25 μl/well in 384-well white solid bottom plate; RPM1_10% FBS. Incubate overnight at 37 °C/5% CO2. • 2.
# T2 sequence (P01116 1-169 isoform P01116-2 G12C): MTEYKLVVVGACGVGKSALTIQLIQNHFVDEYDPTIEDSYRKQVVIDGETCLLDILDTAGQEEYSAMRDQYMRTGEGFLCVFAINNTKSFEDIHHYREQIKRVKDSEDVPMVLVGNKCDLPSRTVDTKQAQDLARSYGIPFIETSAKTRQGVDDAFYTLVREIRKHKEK
# T3 sequence (P01116 1-169 isoform P01116-2 G12S): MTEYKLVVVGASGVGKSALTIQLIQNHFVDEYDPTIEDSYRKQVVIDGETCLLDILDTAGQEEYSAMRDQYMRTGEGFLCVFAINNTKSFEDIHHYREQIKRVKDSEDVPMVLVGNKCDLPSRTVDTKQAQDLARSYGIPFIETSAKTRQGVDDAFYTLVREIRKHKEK
# T4 sequence (P01116 1-188 isoform P01116-2 G12S): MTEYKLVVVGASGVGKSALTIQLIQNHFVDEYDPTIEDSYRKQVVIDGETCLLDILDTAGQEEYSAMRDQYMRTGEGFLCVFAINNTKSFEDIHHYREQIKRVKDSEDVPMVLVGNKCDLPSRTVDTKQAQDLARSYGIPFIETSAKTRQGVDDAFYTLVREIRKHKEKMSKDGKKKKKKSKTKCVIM
# T5 sequence (P01116 1-188 isoform P01116-2): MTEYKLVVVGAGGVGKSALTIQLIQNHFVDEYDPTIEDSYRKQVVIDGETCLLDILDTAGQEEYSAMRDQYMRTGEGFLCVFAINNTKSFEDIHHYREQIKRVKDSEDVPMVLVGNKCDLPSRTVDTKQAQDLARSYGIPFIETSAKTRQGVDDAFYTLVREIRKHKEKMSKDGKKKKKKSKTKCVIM
# T1 sequence (P01116 1-169 isoform P01116-2): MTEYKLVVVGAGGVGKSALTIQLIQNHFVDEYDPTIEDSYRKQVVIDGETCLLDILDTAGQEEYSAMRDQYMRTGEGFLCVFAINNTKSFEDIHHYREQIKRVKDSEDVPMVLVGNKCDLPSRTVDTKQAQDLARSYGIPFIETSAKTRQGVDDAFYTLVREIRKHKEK
Compound,IC50 (KRas WT) [nM],IC50 (KRas G12C) [nM],IC50 (KRas G12S) [nM],IC50 [1] [nM],IC50 [2] [nM]
"CCc1c(F)ccc2cc(O)cc(N3CCc4c(nc(OC[C@@]56CCCN5C[C@H](F)C6)nc4N4CCCCC(C(=O)n5ccc(C)n5)C4)C3)c12 (stereo partly drawn) [Example 147, (1-(7-(8-ethyl-7-fluoro-3-hydroxynaphthalen-1-yl)-2-(((2R,7aS)-2-fluorotetrahydro-1H-pyrrolizin-7a(5H)-yl)methoxy)-5,6,7,8-tetrahydropyrido[3,4-d]pyrimidin-4-yl)azepan-3-yl)(3-methyl-1H-pyrazol-1-yl)methanone]",45,16,37,1210,45
"CCc1c(F)ccc2cc(O)cc(N3CCc4c(nc(OC[C@@]56CCCN5C[C@H](F)C6)nc4N4CCCCC(C(=O)n5ccc(C)n5)CC4)C3)c12 (stereo partly drawn) [Example 148, (1-(7-(8-ethyl-7-fluoro-3-hydroxynaphthalen-1-yl)-2-(((2R,7aS)-2-fluorotetrahydro-1H-pyrrolizin-7a(5H)-yl)methoxy)-5,6,7,8-tetrahydropyrido[3,4-d]pyrimidin-4-yl)azocan-4-yl)(3-methyl-1H-pyrazol-1-yl)methanone]",147,19,10,140,108
"CCc1c(F)ccc2cc(O)cc(-c3ncc4c(N5CCCC(C(=O)n6ccc(C)n6)CC5)nc(OC[C@@H]5CCCN5C)nc4c3F)c12 (stereo partly drawn) [Example 168, (1-(7-(8-ethyl-7-fluoro-3-hydroxynaphthalen-1-yl)-8-fluoro-2-(((S)-1-methylpyrrolidin-2-yl)methoxy)pyrido[4,3-d]pyrimidin-4-yl)azepan-4-yl)(3-methyl-1H-pyrazol-1-yl)methanone]",1380,384,72,245,8690
"Cc1ccn(C(=O)C2CCCCCN(c3nc(OC[C@@]45CCCN4C[C@H](F)C5)nc4c(F)c(-c5ccc(F)c6sc(N)c(C#N)c56)c(Cl)cc34)C2)n1 (stereo partly drawn) [Example 173, 2-amino-4-(6-chloro-8-fluoro-2-(((2R,7aS)-2-fluorotetrahydro-1H-pyrrolizin-7a(5H)-yl)methoxy)-4-(3-(3-methyl-1H-pyrazole-1-carbonyl)azocan-1-yl)quinazolin-7-yl)-7-fluorobenzo[b]thiophene-3-carbonitrile]",31,29,27,772,54
"CCc1c(F)ccc2cc(O)cc(-c3c(F)cc4c(N5CCCC(C(=O)n6ccc(C)n6)CC5)nc(OC[C@@]56CCCN5C[C@H](F)C6)nc4c3F)c12 (stereo partly drawn) [Example 174, (1-(7-(8-ethyl-7-fluoro-3-hydroxynaphthalen-1-yl)-6,8-difluoro-2-(((2R,7aS)-2-fluorotetrahydro-1H-pyrrolizin-7a(5H)-yl)methoxy)quinazolin-4-yl)azepan-4-yl)(3-methyl-1H-pyrazol-1-yl)methanone]",1120,1120,182,507,3000
"Cc1ccn(C(=O)[C@@H]2[C@@H]3CCN(c4nc(OC[C@@]56CCCN5C[C@H](F)C6)nc5c(F)c(-c6ccc(F)c7sc(N)c(C#N)c67)c(Cl)cc45)C[C@@H]32)n1 [Example 179, 2-amino-4-(6-chloro-8-fluoro-2-(((2R,7aS)-2-fluorotetrahydro-1H-pyrrolizin-7a(5H)-yl)methoxy)-4-((1S,6R)-7-(3-methyl-1H-pyrazole-1-carbonyl)-3-azabicyclo[4.1.0]heptan-3-yl)quinazolin-7-yl)-7-fluorobenzo[b]thiophene-3-carbonitrile]",26,64,42,167,110
"Cc1ccn(C(=O)[C@H]2C[C@H]2CNc2nc(OC[C@@]34CCCN3C[C@H](F)C4)nc3c(F)c(-c4ccc(F)c5sc(N)c(C#N)c45)c(Cl)cc23)n1 [Example 182, 2-amino-4-(6-chloro-8-fluoro-2-(((2R,7aS)-2-fluorotetrahydro-1H-pyrrolizin-7a(5H)-yl)methoxy)-4-((((cis)-2-(3-methyl-1H-pyrazole-1-carbonyl)cyclopropyl)methyl)amino)quinazolin-7-yl)-7-fluorobenzo[b]thiophene-3-carbonitrile]",35,24,38,179,247
"Cc1ccn(C(=O)C23CC(CNc4nc(OC[C@@]56CCCN5C[C@H](F)C6)nc5c(F)c(-c6ccc(F)c7sc(N)c(C#N)c67)c(Cl)cc45)(C2)C3)n1 [Example 184, 2-amino-4-(6-chloro-8-fluoro-2-(((2R,7aS)-2-fluorotetrahydro-1H-pyrrolizin-7a(5H)-yl)methoxy)-4-(((3-(3-methyl-1H-pyrazole-1-carbonyl)bicyclo[1.1.1]pentan-1-yl)methyl)amino)quinazolin-7-yl)-7-fluorobenzo[b]thiophene-3-carbonitrile]",27,5,6,115,1500

# Further compounds by falling IC50 (KRas WT), results first:
IC50 (KRas WT) [nM],IC50 (KRas G12C) [nM],IC50 (KRas G12S) [nM],IC50 [1] [nM],IC50 [2] [nM],Compound
1310,3740,1470,> 10000,6530,"CCc1c(F)ccc2cc(O)cc(N3CCc4c(nc(OC[C@@]56CCCN5C[C@H](F)C6)nc4N4CCCC(C(=O)n5ccc(C)n5)CCC4)C3)c12 [Example 149, (1-(7-(8-ethyl-7-fluoro-3-hydroxynaphthalen-1-yl)-2-(((2R,7aS)-2-fluorotetrahydro-1H-pyrrolizin-7a(5H)-yl)methoxy)-5,6,7,8-tetrahydropyrido[3,4-d]pyrimidin-4-yl)azocan-5-yl)(3-methyl-1H-pyrazol-1-yl)methanone]"
258,1790,461,3380,3690,"CCc1c(F)ccc2cc(O)cc(-c3ncc4c(N5C[C@H]6C[C@H](C(=O)n7ccc(C)n7)C[C@H]6C5)nc(OC[C@@]56CCCN5C[C@H](F)C6)nc4c3F)c12 [Example 160, ((3aR,5R,6aS)-2-(7-(8-ethyl-7-fluoro-3-hydroxynaphthalen-1-yl)-8-fluoro-2-(((2R,7aS)-2-fluorotetrahydro-1H-pyrrolizin-7a(5H)-yl)methoxy)pyrido[4,3-d]pyrimidin-4-yl)octahydrocyclopenta[c]pyrrol-5-yl)(3-methyl-1H-pyrazol-1-yl)methanone]"
229,310,203,1780,622,"CCc1c(F)ccc2cc(O)cc(-c3ncc4c(N5CCC(C(=O)N(C)C(=O)C(C)C)CC5)nc(OC[C@@]56CCCN5C[C@H](F)C6)nc4c3F)c12 [Example 166, 1-(7-(8-ethyl-7-fluoro-3-hydroxynaphthalen-1-yl)-8-fluoro-2-(((2R,7aS)-2-fluorotetrahydro-1H-pyrrolizin-7a(5H)-yl)methoxy)pyrido[4,3-d]pyrimidin-4-yl)-N-isobutyryl-N-methylpiperidine-4-carboxamide]"
98,131,129,7590,1250,"CCc1c(F)ccc2cc(O)cc(-c3ncc4c(N(C)CCCS(=O)(=O)n5ccnc5)nc(OC[C@@]56CCCN5C[C@H](F)C6)nc4c3F)c12 [Example 163, 4-(4-((3-((1H-imidazol-1-yl)sulfonyl)propyl)(methyl)amino)-8-fluoro-2-(((2R,7aS)-2-fluorotetrahydro-1H-pyrrolizin-7a(5H)-yl)methoxy)pyrido[4,3-d]pyrimidin-7-yl)-5-ethyl-6-fluoronaphthalen-2-ol]"
13,29,23,126,112,"CCc1c(F)ccc2cc(O)cc(-c3ncc4c(NC[C@@H]5C[C@H]5C(=O)n5ccc(C)n5)nc(OC[C@@]56CCCN5C[C@H](F)C6)nc4c3F)c12 [Example 158, ((1R,2R)-2-(((7-(8-ethyl-7-fluoro-3-hydroxynaphthalen-1-yl)-8-fluoro-2-(((2R,7aS)-2-fluorotetrahydro-1H-pyrrolizin-7a(5H)-yl)methoxy)pyrido[4,3-d]pyrimidin-4-yl)amino)methyl)cyclopropyl)(3-methyl-1H-pyrazol-1-yl)methanone]"
5,4,3,143,192,"Cc1ccn(C(=O)C23CCC(CN(c4nc(OC[C@@]56CCCN5C[C@H](F)C6)nc5c(F)c(-c6ccc(F)c7sc(N)c(C#N)c67)c(Cl)cc45)C2)C3)n1 (stereo partly drawn) [Example 183, 2-amino-4-(6-chloro-8-fluoro-2-(((2R,7aS)-2-fluorotetrahydro-1H-pyrrolizin-7a(5H)-yl)methoxy)-4-(1-(3-methyl-1H-pyrazole-1-carbonyl)-3-azabicyclo[3.2.1]octan-3-yl)quinazolin-7-yl)-7-fluorobenzo[b]thiophene-3-carbonitrile]"
